From patent US12466820B2, “Amino quinazoline derivatives as P2X3 inhibitors” (CHIESI FARMACEUTICI S.p.A., priority 2019, dated 2025)

Columns and labels:
h P2X3 = target: T1, h P2X3 (Homo sapiens, UniProt P56373); assay: In vitro electrophysiology assay for P2X3 (automated whole-cell patch clamp, Sophion Qube); format: cell-based; settings: range of activity
T1 sequence (P56373 1-397): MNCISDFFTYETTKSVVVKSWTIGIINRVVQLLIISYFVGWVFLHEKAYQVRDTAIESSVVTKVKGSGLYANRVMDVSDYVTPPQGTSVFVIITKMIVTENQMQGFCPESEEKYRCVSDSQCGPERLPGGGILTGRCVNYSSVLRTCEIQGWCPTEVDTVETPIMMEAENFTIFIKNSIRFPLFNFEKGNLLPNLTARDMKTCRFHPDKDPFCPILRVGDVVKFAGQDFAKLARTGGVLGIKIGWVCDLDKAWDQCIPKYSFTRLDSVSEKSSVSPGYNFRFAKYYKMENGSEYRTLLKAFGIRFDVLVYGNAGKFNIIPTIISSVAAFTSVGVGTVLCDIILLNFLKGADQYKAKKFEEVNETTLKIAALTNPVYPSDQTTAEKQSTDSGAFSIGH
Procedure, shortened: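 Whole-cell automated patch clamp at room temperature, cells held at −60 mV; after two 800 nM α,β-MeATP baseline responses, antagonist preincubated 10 min then co-applied with 800 nM α,β-MeATP. Inhibition of peak current vs second agonist response; IC50 from 10-concentration curves, one concentration per cell.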

h P2X2/3 = target: T2, h P2X2/3 (Homo sapiens, UniProt P56373+Q9UBL9); assay: In vitro electrophysiology assay for P2X2/3 (same protocol, 10 μM ATP as agonist); format: cell-based; settings: Table 7, range of activity
T2 sequence (P56373 1-397): T1 sequence (P56373 1-397)
T2 sequence (Q9UBL9 1-471): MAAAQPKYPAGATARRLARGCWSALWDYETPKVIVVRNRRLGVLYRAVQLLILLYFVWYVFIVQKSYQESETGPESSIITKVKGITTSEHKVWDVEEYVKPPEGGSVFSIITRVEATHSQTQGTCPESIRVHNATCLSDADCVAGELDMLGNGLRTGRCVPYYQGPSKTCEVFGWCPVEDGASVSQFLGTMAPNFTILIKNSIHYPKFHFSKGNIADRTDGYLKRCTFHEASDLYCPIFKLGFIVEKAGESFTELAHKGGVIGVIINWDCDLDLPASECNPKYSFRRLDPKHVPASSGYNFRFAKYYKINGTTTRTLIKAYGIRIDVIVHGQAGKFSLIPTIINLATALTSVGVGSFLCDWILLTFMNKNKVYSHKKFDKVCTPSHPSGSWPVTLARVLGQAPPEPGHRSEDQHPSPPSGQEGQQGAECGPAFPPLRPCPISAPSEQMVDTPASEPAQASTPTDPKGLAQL
Description: Cells expressing P2X3 receptors were grown according to standard practice and maintained at 37° C. in a 5% humidified CO2 atmosphere. The cells were seeded into T175 flask 2 days prior to the day of the assay and dissociated from the flasks using TrypLE when grown to confluence of 80-90%. The dissociated cells were resuspended in serum free media at a cell density of 3×10^6 cells/ml and loaded onto the Sophion Qube automated patch-clamp system. The extracellular assay buffer contained 145 mM NaCl, 4 mM KCl, 2 mM CaCl2), 1 mM MgCl2, 10 mM HEPES, and 10 mM glucose at pH 7.4. The intracellular assay solution contained 140 mM CsF, 10 mM NaCl, 10 mM EGTA, 10 mM HEPES at pH 7.2. Agonist stock solutions were prepared in H2O and diluted in bath solution prior to use. All antagonists were prepared as 10 mM stock solutions in DMSO and diluted in bath solution prior to use. All experiments were performed under the whole-cell patch clamp configuration at room temperature with 384 individual cells being voltage clamped at −60 mV simultaneously on the Sophion Qube instrument. Two baseline responses were established with the application of α,β-MeATP (800 nM), with the subsequent agonist applications being washed out using extracellular assay buffer containing 0.5 U/ml apyrase. Following the second agonist application, antagonist was incubated in the absence of α,β-MeATP for 10 minutes. After antagonist preincubation, 800 nM α,β-MeATP and antagonist were co-administered to determine the inhibitory effect of the antagonist. One concentration of an antagonist was assessed against a single cell, with different concentrations of the antagonist applied to other cells on the 384 recording substrate. The control P2X3 current amplitude was taken from the peak current amplitude from the second agonist response prior to preincubation with antagonist. The peak P2X3 current amplitude in the presence of antagonist was used to calculate the inhibitory effect at each concentration of the antagonist according to the following equation: […]
Concentration-response curves were constructed from ten different concentrations with each concentration of antagonist tested on at least two individual cells. The concentration of the antagonist to inhibit P2X3 current by 50% (IC50) was determined by fitting the data with the following equation: […]
Where ‘a’ is minimum response, ‘b’ is maximum response, ‘c’ is IC50 and ‘d’ is Hill slope.
Representative compound of the present invention have been also tested for P2X2/3 receptor.
The same assay protocol was used for the P2X2/3 assay as the P2X3 assay with two modifications: 1) 10 μM ATP was used as the agonist; and 2) the mean current amplitude was measured seven seconds after the application of agonist.

[1] = Table 6, inhibition of P2X3 current, agonist α,β-MeATP (800 nM)

Row | SMILES | IC50 (h P2X3; [1]) [nM] | IC50 (h P2X3; Table 7) [nM] | IC50 (h P2X2/3) [nM]
1 | COc1cc(-c2ncc(C)cn2)cc2c(NCc3nnc(C)s3)ncnc12 [Example 153, 8-methoxy-N-((5-methyl-1,3,4-thiadiazol-2-yl)methyl)-6-(5-methylpyrimidin-2-yl)quinazolin-4-amine] | < 316 | < 316 | 3160 to 31600
2 | COc1cc(-c2ccc(F)cn2)cc2c(NCc3ccc(C(F)(F)F)nc3)ncnc12 [Example 150, 6-(5-fluoropyridin-2-yl)-8-methoxy-N-((6-(trifluoromethyl)pyridin-3-yl)methyl)quinazolin-4-amineamine] | < 316 | < 316 | 3160 to 31600
3 | COc1cc(-c2ncc(C)s2)cc2c(NC(C)c3noc(C)n3)ncnc12 (stereo not drawn) [Example 107, 8-methoxy-N-(1-(5-methyl-1,2,4-oxadiazol-3-yl)ethyl)-6-(5-methylthiazol-2-yl)quinazolin-4-amine] | < 316 | < 316 | 316 to 3160
4 | COc1cc(-c2ncc(C)cc2F)cc2c(N[C@H](C)c3noc(C)n3)ncnc12 [Example 157, 6-(3-fluoro-5-methyl-2-pyridyl)-8-methoxy-N-[(1R)-1-(5-methyl-1,2,4-oxadiazol-3-yl)ethyl]quinazolin-4-amine] | < 316 | < 316 | 3160 to 31600
5 | COc1cc(-c2ncc(C)s2)cc2c(N[C@H](C)c3ccc(C)nn3)ncnc12 [Example 5, (R)-8-methoxy-N-(1-(6-methylpyridazin-3-yl)ethyl)-6-(5-methylthiazol-2-yl)quinazolin-4-amine] | < 316 | < 316 | 316 to 3160
6 | Cc1cnc(-c2cc(OC3CCOCC3)c3ncnc(NC(C)c4ccc(C)nn4)c3c2)nc1 (single isomer, unassigned) [Example 28, N-[1-(6-methylpyridazin-3-yl)ethyl]-6-(5-methylpyrimidin-2-yl)-8-tetrahydropyran-4-yloxy-quinazolin-4-amine] | < 316 | < 316 | 316 to 3160
7 | COc1cc(-c2ccc(C)cn2)cc2c(N[C@H](C)c3ccn(C)n3)ncnc12 [Example 159, 8-methoxy-N-[(1R)-1-(1-methylpyrazol-3-yl)ethyl]-6-(5-methyl-2-pyridyl)quinazolin-4-amine] | < 316 | < 316 | 3160 to 31600
8 | COc1cc(-c2ccc(F)cn2)cc2c(NC(C)c3nnc(C)s3)ncnc12 (single isomer, unassigned) [Example 173, 6-(5-fluoropyridin-2-yl)-8-methoxy-N-(1-(5-methyl-1,3,4-thiadiazol-2-yl)ethyl)quinazolin-4-amine] | 316 to 3160 | 316 to 3160 | 3160 to 31600
9 | COc1cc(-c2ccc(C)cn2)cc2c(NCc3noc(C)n3)ncnc12 [Example 136, 8-methoxy-N-((5-methyl-1,2,4-oxadiazol-3-yl)methyl)-6-(5-methylpyridin-2-yl)quinazolin-4-amine] | 316 to 3160 | 316 to 3160 | 3160 to 31600
10 | COc1cc(-c2ncc(C)cn2)cc2c(NCc3ccc(C)nc3)ncnc12 [Example 154, 8-methoxy-N-((6-methylpyridin-3-yl)methyl)-6-(5-methylpyrimidin-2-yl)quinazolin-4-amine] | < 316 | < 316 | 316 to 3160
11 | COc1cc(-c2ccc(C)cn2)cc2c(NC(C)c3nnc(C)s3)ncnc12 (single isomer, unassigned) [Example 127, 8-methoxy-6-(5-methyl-2-pyridyl)-N-[1-(5-methyl-1,3,4-thiadiazol-2-yl)ethyl]quinazolin-4-amine] | < 316 | < 316 | 3160 to 31600
12 | COc1cc(-c2ncc(C)s2)cc2c(NCc3nc(C)no3)ncnc12 [Example 113, 8-methoxy-N-[(3-methyl-1,2,4-oxadiazol-5-yl)methyl]-6-(5-methylthiazol-2-yl)quinazolin-4-amine] | < 316 | < 316 | 316 to 3160
